The values that follow come from patent US6479546B1, “Allosteric inhibitors of lipoxygenase” (The Regents of the University of California, priority 2000, dated 2002).

In general, Kd refers to the equilibrium constant for the complex coming apart.

The structures appear in SMILES notation. Structures can show the parent of a compound that is named as a salt. Where two headings read alike, the source gives them in different places. A value given as a limit tells only on which side of the number the result lay.

Series [1] in a line: Surface tension measurements (CMC). Format: physicochemical. The procedure: Surface Tension Measurements. Buffers were used which correspond to those of the kinetic measurements. Surface tension was measured as described by Harkins et al., using a thin platinum plate (perimeter 2.5 cm) and a Cahn electro-microbalance. Harkins et al., J. Am. Chem. Soc. (1937) 59:2189-2197. Various amounts of surface active agent were added to a 30 ml buffer solution and the surface tension was continuously recorded. After each addition, a sufficiently long period of time (10-30 min.) was allowed to elapse before attaining a steady value of the surface tension. Critical micelle concentration (CMC) values were obtained by plotting the measured surface tensions versus the logarithm of the concentrations of the surface-active agent and recording the intercept of the two straight lines. The point at which a deviation from the straight line, as observed in the surface tension versus log [surface-active agent] plot, was defined as the start of pre-micellular aggregate formation. Harkins et al., supra; Verhagen et al., Chem. Phys. Lipids (1978) 22:255-259.

Series [2] concerns the target T1, SLO-1 (Glycine max, UniProt P08170).
T1 construct: made in house
T1 sequence (P08170 1-839): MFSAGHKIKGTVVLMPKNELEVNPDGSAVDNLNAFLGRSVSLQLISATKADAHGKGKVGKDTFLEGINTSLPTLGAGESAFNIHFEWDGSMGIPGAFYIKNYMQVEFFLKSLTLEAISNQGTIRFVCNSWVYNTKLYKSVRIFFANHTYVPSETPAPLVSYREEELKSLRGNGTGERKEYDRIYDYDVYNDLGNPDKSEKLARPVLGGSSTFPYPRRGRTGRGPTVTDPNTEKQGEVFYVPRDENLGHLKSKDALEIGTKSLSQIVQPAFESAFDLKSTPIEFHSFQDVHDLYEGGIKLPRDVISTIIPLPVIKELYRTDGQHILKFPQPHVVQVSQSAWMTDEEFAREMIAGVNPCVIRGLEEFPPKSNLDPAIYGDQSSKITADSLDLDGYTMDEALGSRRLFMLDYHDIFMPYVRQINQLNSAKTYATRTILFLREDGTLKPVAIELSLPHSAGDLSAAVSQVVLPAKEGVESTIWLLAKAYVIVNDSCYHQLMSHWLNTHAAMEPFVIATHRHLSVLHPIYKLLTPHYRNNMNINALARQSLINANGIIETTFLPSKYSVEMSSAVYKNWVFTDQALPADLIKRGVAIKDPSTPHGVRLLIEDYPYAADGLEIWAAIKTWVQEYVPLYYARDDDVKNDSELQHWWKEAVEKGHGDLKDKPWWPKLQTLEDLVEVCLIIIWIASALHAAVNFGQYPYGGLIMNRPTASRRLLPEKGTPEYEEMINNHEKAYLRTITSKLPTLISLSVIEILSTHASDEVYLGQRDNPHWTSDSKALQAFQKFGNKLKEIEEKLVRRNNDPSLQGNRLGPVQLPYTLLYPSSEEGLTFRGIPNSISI
Description: Steady state kinetics / inhibition studies, SLO-1. Format: biochemical, soybean. How it is done: Steady State Kinetics. Lipoxygenase rates were determined by following the formation of product at 234 nm (ε=25,000 M^−1cm^−1) with a Hewlett-Packard 8453 UV-vis spectrophotometer. The destruction of 13-HPOD by the diode array spectrophotometer were negligible under these reaction conditions. All reactions were 2 ml in volume, run at room temperature (23° C.) and constantly stirred with a rotating magnetic bar. In experiments using SLO-1, kinetic reactions were performed in 0.1 M borate (pH 9.2), while reactions using 15-HLO were performed in 25 mM HEPES (pH 7.5). Substrate solutions used in each experiment were measured for accurate LA concentration by quantitatively converting substrate to product using soybean lipoxygenase-1. Enzymatic rates were measured between 1-50 μM LA with 1-25 μM OS for SLO-1 and lower than 2 μM LA for 15-HLO. Solutions containing LA and/or OS were sonicated for 3-5 minutes before use in kinetic experiments. Rate reactions were initiated by the addition of enzyme to final concentrations of 3 nM SLO-1 (80% iron content) and 200 nM 15-HLO (15% iron content). All kinetic parameters were determined by non-linear regression using Kaleidagraph software (Abelbeck).

The target of series [3] is T1, SLO-1. Nature of the series: Kinetic isotope effect (KIE) titration, SLO-1. The class given is biochemical, soybean. The settings on record: for Kd: SLO-1, 5 μM LA/D-LA, pH 9.2, read-out: KD from hyperbolic fit of KIE. The procedure: Kinetic Isotope Effect Determination. Determination of the kinetic isotope effect (KIE) was similar to that previously published by Holman and coworkers with the following modifications. Lewis et al., J. Am. Chem. Soc. (1994) 116:795-796. Lipoxygenase is added (0.12 nM SLO-1 and 12 nM 15-HLO) to a protio/per-deutero LA mixture (60 mL, 5 μM LA/D-LA), monitored at 234 nm with a P-E Lambda 4 and stopped with an acid quench (5% glacial acetic acid) at less than 5% total LA/D-LA consumption. […] The acidified reaction mixture is extracted with methylene chloride (trimethylphosphite, which quantitatively reduces the labile 13-HPOD, is not needed since both the alcohol and the peroxide have the same elution time). […] (isocratic mobile phase: 74.9% Methanol :25% H2O: 0.1% Acetic acid). […] Lewis et al., supra. […] When the percent conversion (f) to product is less than 5%, this equation simplifies to ([[…]]), where [P-H] is protio-product concentration and [So-H] is the initial protio-substrate concentration. […] et al., Reaction Rates of Isotopic Molecules (R. E. Krieger Publishing, Florida)(1987). […] Greater substrate ratios than 2:1 were not used due to the expensive nature of the per-deutero substrate. Under these conditions, the upper limit for the KIE is greater than 130 and is limited by the vanishingly small peak area of the per-deutero 13-HPOD peak relative to the negative control. This RP-HPLC based method for determining molar protio/per-deutero 13-HPOD ratios gave results identical (within experimental error) to those obtained by EI-MS. No appreciable side products at any wavelength for 15-HLO or SLO-1 were observed, indicating no reaction branching. The OS titration experiments require 5 μM LA/D-LA to record product ratios. For the 15-HLO experiments (pH 7.5), OS concentrations above 6 μM were not feasible due to large amounts of a white emulsion at the extraction interface which inhibited product recovery. This emulsion was not observed for reactions performed with SLO-1 (pH 9.2). […] All kinetic data reported were measured in triplicate on two distinct days.

The next series has as its target T2, 15-HLO (Homo sapiens, UniProt P16050).
T2 construct: made in house
T2 sequence (P16050 1-662): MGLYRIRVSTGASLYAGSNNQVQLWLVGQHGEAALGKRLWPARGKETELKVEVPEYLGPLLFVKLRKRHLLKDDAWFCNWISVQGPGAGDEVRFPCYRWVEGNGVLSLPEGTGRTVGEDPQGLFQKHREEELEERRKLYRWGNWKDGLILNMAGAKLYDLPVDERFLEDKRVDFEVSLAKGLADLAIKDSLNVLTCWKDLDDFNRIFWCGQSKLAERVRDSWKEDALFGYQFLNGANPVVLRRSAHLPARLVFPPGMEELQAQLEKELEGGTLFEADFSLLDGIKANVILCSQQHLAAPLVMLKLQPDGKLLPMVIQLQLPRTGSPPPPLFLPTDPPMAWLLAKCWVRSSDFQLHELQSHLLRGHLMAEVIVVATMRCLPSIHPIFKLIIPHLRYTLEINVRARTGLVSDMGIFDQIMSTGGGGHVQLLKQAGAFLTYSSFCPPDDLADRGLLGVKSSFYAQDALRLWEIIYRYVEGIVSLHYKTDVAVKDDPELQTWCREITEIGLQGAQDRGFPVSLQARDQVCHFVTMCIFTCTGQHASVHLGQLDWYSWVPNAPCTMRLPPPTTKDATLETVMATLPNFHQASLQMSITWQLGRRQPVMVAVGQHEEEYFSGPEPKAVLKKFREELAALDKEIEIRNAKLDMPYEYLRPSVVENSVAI
Description: Kinetic isotope effect (KIE) titration, 15-HLO. Format: biochemical. How it is done:
Kinetic Isotope Effect Determination. Determination of the kinetic isotope effect (KIE) was similar to that previously published by Holman and coworkers with the following modifications. Lewis et al., J. Am. Chem. Soc. (1994) 116:795-796. Lipoxygenase is added (0.12 nM SLO-1 and 12 nM 15-HLO) to a protio/per-deutero LA mixture (60 mL, 5 μM LA/D-LA), monitored at 234 nm with a P-E Lambda 4 and stopped with an acid quench (5% glacial acetic acid) at less than 5% total LA/D-LA consumption. It is important to note that diode array spectrophotometers degrade 13-hydroperoxy-9,11-(Z,E)-octadecadienoic acid (13-HPOD) and care should be taken if the reaction time length is longer than 5 minutes. The acidified reaction mixture is extracted with methylene chloride (trimethylphosphite, which quantitatively reduces the labile 13-HPOD, is not needed since both the alcohol and the peroxide have the same elution time). The methylene chloride layer is evaporated to dryness under vacuum, reconstituted in 50 μL running buffer, injected onto a C18 column (Higgins Analytical, 5 micron, 250×4.6 mm), and eluted at 1 mL/min. (isocratic mobile phase: 74.9% Methanol :25% H2O: 0.1% Acetic acid). […] All kinetic data reported were measured in triplicate on two distinct days.

For `CCCCC/C=C\C/C=C\CCCCCCCC(=O)O` [LA, Linoleic Acid], the CMC was found to be 40 ± 10 µM in series [1] (25 mM HEPES (pH 7.5)) and 150 ± 10 µM in series [1] (0.1 M borate (pH 9.2)). Further, the equilibrium dissociation constant (Kd) at SLO-1 [2] (SLO-1, no appreciable substrate inhibition below 30 μM LA, read-out: KD (allosteric site)) is > 30000 nM.

Regarding `CCCCCCCC/C=C\CCCCCCCC(=O)O` [OA, oleic acid], the dissociation constant (Kd) on SLO-1 [3] worked out at 36000 ± 14000 nM.

Take `CCCCCCCC/C=C\CCCCCCCCOS(=O)(=O)O` [OS, (Z)-9-octadecenyl sulfate]: the Kd at 15-HLO (5 μM LA/D-LA, pH 7.5, read-out: KD from hyperbolic fit of KIE) was determined as 400 ± 50 nM; at 15-HLO (conclusion, unit inferred, read-out: KD), 450 ± 50 nM; at SLO-1 [3], 600 ± 200 nM. Also, the “lessens the rate of catalysis (k2 decreases)” value on SLO-1 [2] (SLO-1) came out at 15%. Moreover, the Ki was 450 ± 160 nM on SLO-1 [2] (fit to Km (app) saturation curve, Eq. 3, read-out: Ki); 860 ± 110 nM on SLO-1 [2] (fit to kcat/Km data, Eq. 4, β approximated 0.85, read-out: Ki); ≥ 100000 nM at SLO-1 [2] (simulation Scheme 3, Eqs. 7 and 8, read-out: Kii (catalytic site), minimal value).

Take `CCCCCCCCCCCCOS(=O)(=O)[O-].[Na+]` [SDS]: the “effect on KIE” value at SLO-1 [3] (control for non-specific surfactant binding) is “no increase in the KIE”.
